In article doi:10.1101/2022.07.06.498982v1 (biorxiv, 2022):
pKd: −log10 of the molar value.

What was measured:
[1] = target: soluble recombinant human TLR4 (hTLR4) (Homo sapiens, UniProt O00206); test: biochemical
[2] = target: soluble recombinant mouse TLR4 (mTLR4) (Mus musculus, UniProt Q9QUK6); test: biochemical
Sequence of soluble recombinant mouse TLR4 (mTLR4) (Q9QUK6 26-638 limits assumed): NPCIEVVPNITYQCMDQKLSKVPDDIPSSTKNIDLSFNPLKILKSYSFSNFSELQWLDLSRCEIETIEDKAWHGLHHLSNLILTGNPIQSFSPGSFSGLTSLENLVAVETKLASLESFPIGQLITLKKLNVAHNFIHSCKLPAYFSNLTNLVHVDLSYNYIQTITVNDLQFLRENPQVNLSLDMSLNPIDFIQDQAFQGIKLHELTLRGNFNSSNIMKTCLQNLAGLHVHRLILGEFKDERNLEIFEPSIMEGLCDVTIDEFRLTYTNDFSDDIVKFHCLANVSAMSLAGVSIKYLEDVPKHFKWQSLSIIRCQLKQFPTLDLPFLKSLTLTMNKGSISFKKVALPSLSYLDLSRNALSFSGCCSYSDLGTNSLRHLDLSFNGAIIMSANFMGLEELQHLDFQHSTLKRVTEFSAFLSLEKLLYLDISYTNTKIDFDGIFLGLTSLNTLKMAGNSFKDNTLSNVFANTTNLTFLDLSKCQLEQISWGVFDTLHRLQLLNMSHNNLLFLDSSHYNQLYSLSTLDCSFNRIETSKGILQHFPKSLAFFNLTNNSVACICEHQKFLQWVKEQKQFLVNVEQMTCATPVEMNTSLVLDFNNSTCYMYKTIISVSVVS

Sequence of soluble recombinant human TLR4 (hTLR4) (O00206 24-631 limits assumed): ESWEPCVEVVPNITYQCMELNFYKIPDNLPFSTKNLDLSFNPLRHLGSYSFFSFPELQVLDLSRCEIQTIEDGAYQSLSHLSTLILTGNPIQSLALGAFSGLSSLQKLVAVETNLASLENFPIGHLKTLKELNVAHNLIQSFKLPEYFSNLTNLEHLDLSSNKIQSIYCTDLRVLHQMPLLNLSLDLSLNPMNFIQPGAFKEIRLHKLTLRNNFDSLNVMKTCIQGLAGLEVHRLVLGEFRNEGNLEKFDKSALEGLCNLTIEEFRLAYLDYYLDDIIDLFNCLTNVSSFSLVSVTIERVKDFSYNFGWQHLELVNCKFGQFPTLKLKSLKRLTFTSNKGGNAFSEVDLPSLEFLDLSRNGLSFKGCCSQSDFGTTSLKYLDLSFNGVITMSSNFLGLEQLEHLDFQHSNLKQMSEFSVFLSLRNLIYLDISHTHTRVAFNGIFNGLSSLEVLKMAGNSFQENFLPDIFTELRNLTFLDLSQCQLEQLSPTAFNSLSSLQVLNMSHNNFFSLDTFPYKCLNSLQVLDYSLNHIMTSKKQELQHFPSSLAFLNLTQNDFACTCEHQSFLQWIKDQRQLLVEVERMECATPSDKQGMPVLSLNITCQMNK

SMILES: [NH2][Pt]([NH2])([Cl])[Cl] [cisplatin]
- pKd [1]: 4.00
- pKd [2]: 3.87
